The source of these data is US20170112896A1, “SMALL MOLECULE RAC OR RHO INHIBITORS” (Ohio State Innovation Foundation, priority 2014, published 2017).

Read-outs that look alike come from different tables or passages of the source. Square brackets hold non-standard residues; d marks the D form. Side chains are listed from the residue outwards. Peptide text beside a SMILES is read from it. * marks the point of attachment. Lys(5-FITC)NH2 = NC(=O)[C@H](CCCCNC(=S)Nc1ccc2c(c1)C(=O)OC21c2ccc(O)cc2Oc2cc(O)ccc21)N*; Phe(3,4-F2) = N[C@@H](Cc1ccc(F)c(F)c1)C(=O)O; Phe(4-F) = N[C@@H](Cc1ccc(F)cc1)C(=O)O; 2Nal = N[C@@H](Cc1ccc2ccccc2c1)C(=O)O; d2Nal = N[C@H](Cc1ccc2ccccc2c1)C(=O)O; Tle = CC(C)(C)[C@H](N)C(=O)O; dNle = CCCC[C@@H](N)C(=O)O; Nle = CCCC[C@H](N)C(=O)O; X4 = O=C(c1ccc(Cl)nc1)*; Dap = NC[C@H](N)C(=O)O

Data set [1] concerns the target T1, Ras(G12V)-Raf RBD interaction (Homo sapiens, UniProt P01116, G12V).
T1 construct: The G12V mutant K-Ras (amino acids 1-185) was recombinantly fused to glutathione 5-transferase (GST) at its N-terminus; GST (N, cleaved yes); made in house; host or cells: Escherichia coli BL21
Nature of the data set: HTRF assay, inhibition of Ras-Raf RBD interaction. It is filed as binding. Particulars: for IC50: read-out: HTRF IC50; for increase of Ras binding affinity by substitution: relative to parent 9A5/9A6. (In general: TR-FRET usually uses a lanthanide donor and a delayed reading to cut background.)
Protocol: Recombinant HA-tagged K-Ras (no GST, 50 nM), GST-Raf RBD (50 nM each), a monoclonal anti-HA antibody labeled with acceptor d2 (2 μg/mL), a monoclonal anti-GST antibody labeled with donor Tb (0.25 μg/mL) (Cisbio), and increasing concentrations of cyclic peptide (0-20 μM) were mixed in PBS (total volume of 20 μL) in a 384-well plate. The plate was incubated overnight at 4° C. and the HTRF signal was measured on a Molecular Devices Spectramax M5 or a Tecan infinite M1000 Pro plate reader. The data were analyzed by Prism 6.0 from Graphpad Software, Inc. (La Jolla, Calif.) and IC50 values were obtained by fitting the data to dose-response-inhibition curve.

In data set [2] the test system is H1299 lung cancer cells. The data set is classed as cell-based. The conditions noted are these: for IC50: 72 h; for anti-proliferative activity against lung cancer cells (in words): MTT assay. The protocol: MTT assays (Mosmann, T. (1983) J. Immunol. Methods 65:55) were performed with H1299 lung cancer cells. One hundred μL of H1299 cells (0.5×10^5 cells/mL) were seeded in each well of a 96-well culture plate and allowed to grow overnight in Advanced RPMI medium supplemented with 10% fetal bovine serum (FBS) and 1% penicillin-streptomycin. Varying concentrations of cyclic peptide (0-25 μM) were added to the each well and the cells were incubated at 37° C. with 5% CO2 for 72 hours. Ten μL of a MTT stock solution (Roche) was added into each well. The plate was incubated at 37° C. for 4 h. Then 100 μL of SDS-HCl solubilizing buffer was added into each well, and the resulting solution was mixed thoroughly. The plate was incubated at 37° C. overnight. The absorbance of the formazan product was measured at 570 nm using a Molecular Devices Spectramax M5 plate reader. Each experiment was performed in triplicates and the cells without any peptide added were treated as control.

Data set [3] has as its system A549 lung cancer cells.
Where [4] appears, read: inhibition of Ras-Raf interaction, unlabeled peptide.

T1 sequence (P01116 1-185 isoform P01116-2 G12V): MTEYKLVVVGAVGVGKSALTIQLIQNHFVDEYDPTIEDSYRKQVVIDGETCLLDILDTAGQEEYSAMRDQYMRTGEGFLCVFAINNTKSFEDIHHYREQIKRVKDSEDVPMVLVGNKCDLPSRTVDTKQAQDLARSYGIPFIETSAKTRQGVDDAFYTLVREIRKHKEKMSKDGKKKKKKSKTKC

In the case of `CCCC[C@H](NC(=O)CC[C@@H]1NC(=O)[C@@H](C)NC(=O)[C@H]([C@@H](C)O)NC(=O)[C@H](Cc2c[nH]c3ccccc23)NC(=O)[C@H](CCC(N)=O)NC(=O)[C@@H](CCCC)NC(=O)[C@H](Cc2ccc(F)cc2)NC(=O)[C@H](CCCNC(=N)N)NC(=O)[C@@H](Cc2ccc3ccccc3c2)NC(=O)[C@H](CCCNC(=N)N)NC(=O)[C@H](CCCNC(=N)N)NC1=O)C(N)=O` [Cyclorasin 9A4] (cyclo(RR[d2Nal]R[Phe(4-F)][dNle]QWT[dA]E([Nle-NH2]))), the IC50 in data set [1] (setting [4]) was 0.5 ± 0.1 µM. Still for that read-out and setting: under `CCCC[C@H]1NC(=O)[C@H](Cc2ccc(O)cc2)NC(=O)[C@H](CCCNC(=N)N)NC(=O)[C@@H](Cc2ccc3ccccc3c2)NC(=O)[C@H](CCCNC(=N)N)NC(=O)[C@H](CCCNC(=N)N)NC(=O)[C@@H](CCCNC(=N)N)NC(=O)[C@@H](C)NC(=O)[C@H]([C@@H](C)O)NC(=O)[C@H](Cc2c[nH]c3ccccc23)NC(=O)[C@H](CCC(N)=O)NC1=O` [Cyclorasin 9A13] (cyclo(QWT[dA][dR]RR[d2Nal]RY[dNle])) stands greater than 20 µM. The compound `CCCC[C@H]1NC(=O)[C@H](Cc2ccc(F)cc2)NC(=O)[C@H](CCCNC(=N)N)NC(=O)[C@@H](Cc2ccc3ccccc3c2)NC(=O)[C@H](CCCNC(=N)N)NC(=O)[C@H](CCCNC(=N)N)NC(=O)[C@@H](CCCNC(=N)N)NC(=O)[C@@H](C(C)C)NC(=O)[C@H]([C@@H](C)O)NC(=O)[C@H](Cc2c[nH]c3ccccc23)NC(=O)[C@H](CCC(N)=O)NC1=O` [Cyclorasin 9A14] (cyclo(WT[dV][dR]RR[d2Nal]R[Phe(4-F)][dNle]Q)) yielded an IC50 in data set [2] of 5.4 ± 2.4 µM. Besides, the “increase of Ras binding affinity by substitution” value (“increase of Ras binding affinity” for short) in data set [1] is reported as 2 fold. The like results for `CCCC[C@H]1NC(=O)[C@H](Cc2ccc(F)cc2)NC(=O)[C@H](CCCNC(=N)N)NC(=O)[C@@H](Cc2ccc3ccccc3c2)NC(=O)[C@H](CCCNC(=N)N)NC(=O)[C@H](CCCNC(=N)N)NC(=O)[C@@H](CCCNC(=N)N)NC(=O)[C@@H](C)NC(=O)[C@H](C(C)(C)C)NC(=O)[C@H](Cc2c[nH]c3ccccc23)NC(=O)[C@H](CCC(N)=O)NC1=O` [Cyclorasin 9A16] (cyclo(W[Tle][dA][dR]RR[d2Nal]R[Phe(4-F)][dNle]Q)) were, in that order, 3.5 ± 0.6 µM and 2 fold. In turn, `CCCC[C@H]1NC(=O)[C@H](Cc2ccc(F)c(F)c2)NC(=O)[C@H](CCCNC(=N)N)NC(=O)[C@@H](Cc2ccc3ccccc3c2)NC(=O)[C@H](CCCNC(=N)N)NC(=O)[C@H](CCCNC(=N)N)NC(=O)[C@H](CCCNC(=N)N)NC(=O)[C@@H](C)NC(=O)[C@H]([C@@H](C)O)NC(=O)[C@H](Cc2c[nH]c3ccccc23)NC(=O)[C@H](CCC(N)=O)NC1=O` [Cyclorasin 9A43] (cyclo(WT[dA]RRR[d2Nal]R[Phe(3,4-F2)][dNle]Q)) had an IC50 in data set [2] of 6.9 ± 0.8 µM. Further, the “increase of Ras binding affinity” value in data set [1] is 2 fold.

Regarding `CCCC[C@H]1NC(=O)[C@H](CNC(=O)c2ccc(Cl)nc2)NC(=O)[C@H](CCCNC(=N)N)NC(=O)[C@@H](Cc2ccc3ccccc3c2)NC(=O)[C@H](CCCNC(=N)N)NC(=O)[C@H](CCCNC(=N)N)NC(=O)[C@H](CCCNC(=N)N)NC(=O)[C@@H](C)NC(=O)[C@H](C(C)(C)C)NC(=O)[C@H](Cc2c[nH]c3ccccc23)NC(=O)[C@H](CCC(N)=O)NC1=O` [Cyclorasin 9A44b] (cyclo(W[Tle][dA]RRR[d2Nal]R[Dap](X4)[dNle]Q)), in data set [1], the IC50 amounted to 0.52 ± 0.16 µM. In data set [2], `C[C@H]1NC(=O)[C@H]([C@@H](C)O)NC(=O)[C@H](Cc2c[nH]c3ccccc23)NC(=O)[C@H](CCC(N)=O)NC(=O)[C@@H](CCCNC(=N)N)NC(=O)[C@H](Cc2ccc(F)cc2)NC(=O)[C@H](CCCNC(=N)N)NC(=O)[C@@H](Cc2ccc3ccccc3c2)NC(=O)[C@H](CCCNC(=N)N)NC(=O)[C@H](CCCNC(=N)N)NC(=O)[C@H](CCCNC(=N)N)NC1=O` [Cyclorasin 9A45] (cyclo(WT[dA]RRR[d2Nal]R[Phe(4-F)][dR]Q)) had a 50% inhibitory concentration (IC50) of 8.9 ± 2.1 µM. In data set [1], the “increase of Ras binding affinity” value worked out at 4 fold.

With `CC(C)[C@H]1NC(=O)[C@H](C(C)(C)C)NC(=O)[C@H](Cc2c[nH]c3ccccc23)NC(=O)[C@H](CCC(N)=O)NC(=O)[C@@H](CCCNC(=N)N)NC(=O)[C@H](Cc2ccc(F)c(F)c2)NC(=O)[C@H](CCCNC(=N)N)NC(=O)[C@@H](Cc2ccc3ccccc3c2)NC(=O)[C@H](CCCNC(=N)N)NC(=O)[C@H](CCCNC(=N)N)NC(=O)[C@H](CCCNC(=N)N)NC1=O` [Cyclorasin 9A50] (cyclo([Phe(3,4-F2)][dR]QW[Tle][dV]RRR[d2Nal]R)), the IC50 in data set [1] (setting [4]) is greater than 1 µM.

In the case of `CCCC[C@H]1NC(=O)[C@H](Cc2ccc(F)c(F)c2)NC(=O)[C@H](CCCNC(=N)N)NC(=O)[C@@H](Cc2ccc3ccccc3c2)NC(=O)[C@H](CCCNC(=N)N)NC(=O)[C@H](CCCNC(=N)N)NC(=O)[C@@H](CCCNC(=N)N)NC(=O)[C@@H](C(C)C)NC(=O)[C@H](C(C)(C)C)NC(=O)[C@H](Cc2c[nH]c3ccccc23)NC(=O)[C@H](CCC(N)=O)NC1=O` [Cyclorasin 9A51] (cyclo(W[Tle][dV][dR]RR[d2Nal]R[Phe(3,4-F2)][dNle]Q)), in data set [2], the IC50 was determined as 6.7 ± 0.8 µM and the “anti-proliferative activity against lung cancer cells (in words)” value (“anti-proliferative activity” for short) is listed as “less effective”.

In the case of `C[C@H]1NC(=O)[C@H]([C@@H](C)O)NC(=O)[C@H](Cc2c[nH]c3ccccc23)NC(=O)[C@H](CCC(N)=O)NC(=O)[C@@H](CCCNC(=N)N)NC(=O)[C@H](Cc2ccc(F)c(F)c2)NC(=O)[C@H](CCCNC(=N)N)NC(=O)[C@@H](Cc2ccc3ccccc3c2)NC(=O)[C@H](CCCNC(=N)N)NC(=O)[C@H](CCCNC(=N)N)NC(=O)[C@H](CCCNC(=N)N)NC1=O` [Cyclorasin 9A52] (cyclo([Phe(3,4-F2)][dR]QWT[dA]RRR[d2Nal]R)), the IC50 in data set [1] (setting [4]) was greater than 1 µM.

`CCCC[C@H]1NC(=O)[C@H](Cc2ccc(F)cc2)NC(=O)[C@H](CCCNC(=N)N)NC(=O)[C@@H](Cc2ccc3ccccc3c2)NC(=O)[C@H](CCCNC(=N)N)NC(=O)[C@H](CCCNC(=N)N)NC(=O)[C@@H](CCCNC(=N)N)NC(=O)[C@@H](C(C)C)NC(=O)[C@H](C(C)(C)C)NC(=O)[C@H](Cc2c[nH]c3ccccc23)NC(=O)[C@H](CCC(N)=O)NC1=O` [Cyclorasin 9A53] (cyclo(W[Tle][dV][dR]RR[d2Nal]R[Phe(4-F)][dNle]Q)) yielded an IC50 in data set [2] of 13 ± 1 µM.

For `CCCC[C@H]1NC(=O)[C@H](Cc2ccc(F)c(F)c2)NC(=O)[C@H](CCCNC(=N)N)NC(=O)[C@@H](Cc2ccc3ccccc3c2)NC(=O)[C@H](CCCNC(=N)N)NC(=O)[C@H](CCCNC(=N)N)NC(=O)[C@H](CCCNC(=N)N)NC(=O)[C@@H](C(C)C)NC(=O)[C@H](C(C)(C)C)NC(=O)[C@H](Cc2c[nH]c3ccccc23)NC(=O)[C@H](CCC(N)=O)NC1=O` [Cyclorasin 9A54] (cyclo(W[Tle][dV]RRR[d2Nal]R[Phe(3,4-F2)][dNle]Q)), in data set [2], the IC50 is 7.2 ± 0.4 µM and the “anti-proliferative activity” value is recorded as “less effective”. As for `CCCC[C@H]1NC(=O)[C@H](Cc2ccc(F)cc2)NC(=O)[C@H](CCCNC(=N)N)NC(=O)[C@H](Cc2ccc3ccccc3c2)NC(=O)[C@H](CCCNC(=N)N)NC(=O)[C@H](CCCNC(=N)N)NC(=O)[C@H](CCCNC(=N)N)NC(=O)[C@@H](C)NC(=O)[C@H]([C@@H](C)O)NC(=O)[C@H](Cc2c[nH]c3ccccc23)NC(=O)[C@H](CCC(N)=O)NC1=O` [Cyclorasin 9A55] (cyclo(WT[dA]RRR[2Nal]R[Phe(4-F)][dNle]Q)), half-maximal inhibition in data set [2] (IC50) was put at 12 ± 1 µM.

`CCCC[C@H]1NC(=O)[C@H](Cc2ccc(F)cc2)NC(=O)[C@H](CCCNC(=N)N)NC(=O)[C@@H](Cc2ccc3ccccc3c2)NC(=O)[C@H](CCCNC(=N)N)NC(=O)[C@H](CCCNC(=N)N)NC(=O)[C@H](CCC(=O)N[C@@H](CCCCNC(=S)Nc2ccc3c(c2)C(=O)OC32c3ccc(O)cc3Oc3cc(O)ccc32)C(N)=O)NC(=O)[C@@H](C)NC(=O)[C@H]([C@@H](C)O)NC(=O)[C@H](Cc2c[nH]c3ccccc23)NC(=O)[C@@H](CO)NC1=O` [Cyclorasin 9A, (Arg-Arg-nal-Arg-Fpa-nle-ser-Trp-Thr-ala-Gln)] (cyclo(RR[d2Nal]R[Phe(4-F)][dNle][dS]WT[dA]E(Lys(5-FITC)NH2))): in data set [3], the “cell permeability / intracellular fluorescence” value is on record as “cell permeable”. Also, in data set [2], the IC50 turned out to be 18 ± 4 µM and the “anti-proliferative activity” value was “weak anti-proliferative activity”. Turning to `C[C@H]1NC(=O)[C@H](CCCNC(=N)N)NC(=O)[C@H](Cc2c[nH]c3ccccc23)NC(=O)[C@H](CCCNC(=N)N)NC(=O)[C@H](Cc2ccc(F)cc2)NC(=O)[C@H](CCCNC(=N)N)NC(=O)[C@@H](Cc2ccc3ccccc3c2)NC(=O)[C@H](CCCNC(=N)N)NC(=O)[C@H](CCCNC(=N)N)NC(=O)[C@H](CCC(N)=O)NC1=O` [Cyclorasin 12A, (Arg-Arg-nal-Arg-Fpa-Arg-Trp-Arg-ala-Gln)] (cyclo(RR[d2Nal]R[Phe(4-F)]RWR[dA]Q)), the “cell permeability / intracellular fluorescence” value in data set [3] was “cell permeable”. For the same compound, in data set [2], the “anti-proliferative activity” value was “weak anti-proliferative activity”.

For orientation: IC50 means the concentration needed to halve the response being measured.
